Measurements as given in patent EP3521435A1, “A HIGH STRINGENCY SELECTION SYSTEM FOR PROTEIN EXPRESSION IN PROLINE-AUXOTROPHIC CELLS” (Bayer AG, priority 2018, dated 2019).

Test system: CHO-K1 cells
Assay: Batch fermentation in shake flasks of human IgG1 expressing stable cell populations (Poros A-HPLC titer, viable cell density, viability)
Format: cell-based, Chinese hamster
Details: human IgG1, pJF1576, non-selecting conditions
Procedure: To efficiently test the impact of different procedures on improving selection stringency, experimental testing in stable cell populations was performed. As test molecules, enhanced green fluorescent protein (GFP) as well as a human IgG1 were chosen. CHO-K1 cells adapted to growth in suspension in defined medium were obtained from SAFC and cultivated in EX-CELL CD CHO Fusion medium (SAFC 14365C). Custom-made EX-CELL CD CHO Fusion medium without L-Proline (Pro) and without L-Ornithine (Orn) ("proline-free medium") was obtained from SAFC. The expression vector system was based on modified versions of "CET 1019 AS-puro-SceI" and "CET 1019 AD-puro-SceI" for GFP and human IgG1, respectively, from Merck-Millipore, containing the Puromycin selection marker (Puromycin N-acetyl-transferase) known to exert a high selection stringency. To minimize variations in cell populations derived from using different transfections or different vectors, the first series of experiments were conducted using vectors into which a P5CS expression cassette was cloned upstream of a UCOE element, in addition to the Puromycin selection marker present downstream of a gene of interest. This way, it was possible to pool different transfections using the same vector to obtain a common starting point, and split the mixture according to different selection conditions, minimizing any variations that are not due to selection conditions themselves. Expression of long and short isoform of murine P5CS (Protein: Delta-1-pyrroline-5-carboxylate synthase; Gene: Aldh18a1; UniProtKB accession number: Q9Z110-1 & Q9Z110-2) was driven by a SV40 promoter. A SV40 polyadenylation sequence was used at the 3' end of the gene. More details can be found in Table 1. Typically, CHO cells were cultivated in EX-CELL CD CHO Fusion medium containing 6 mM GlutaMAX (Thermo Fisher, 35050-38) ("CD-Fusion medium") at 37 °C with 5% CO2. Cells were grown to logarithmic phase under shaking conditions for transfections. 1e7 cells/cuvette were transfected using nucleofection (Amaxa Nucleofector II, following the manufacturer's recommendations) with 5 µg of linearized DNA. After transfection, cells were taken up in 1 ml medium and transferred into 1 well of a 6 well microtiter plate (MTP) already containing 1 ml medium. The cells were incubated for 24 h without shaking, after which 9 ml medium were added and cells were washed (either in standard or proline-free medium). Multiple transfections were pooled, if applicable. Cells were adjusted to 2e5 viable cells/ml and 10 ml were transferred to T-25 flasks. Reference cell populations were selected using 10 µg/ml Puromycin in CD-Fusion medium. For P5CS-based selection, EX-CELL CD CHO Fusion medium (custom-made, SAFC) containing 6 mM GlutaMAX without proline and without ornithine was used ("proline-free" or "CD-Fusion w/o Pro" medium), with or without additional selection pressure.
Cell viability of the different populations was monitored over time. As soon as cell populations appeared to recover from selection pressure, cells were transferred to Shake Flask or TubeSpins for expansion in suspension under shaking conditions. Subsequently, stable cell populations transfected with IgG were seeded at 2e5 viable cells/ml for batch fermentation without selection pressure (i.e. standard CD-Fusion medium containing proline and no other selective agents). The cells were cultivated for 5-10 days, viable cell densities and productivity were monitored over time. IgG titers were determined using Poros A-HPLC method. Typically, final batch titers were recorded at a time point at which majority of cultures had around 70% viability. Stable cell populations transfected with GFP vector were subjected to analysis by flow cytometry using Guava easyCyte 8HT Benchtop Flow Cytometer (Millipore). 250 µl of cell culture were transferred to 96 MTP and washed with PBS. Dead cells were excluded from analysis using propidium iodide (PI). […]

SMILES: NCCC[C@H](N)C(=O)O [Orn, L-Ornithine]
- Batch titer day 7 (selected in CD-Fusion w/o Pro + 0.2 mM Orn + 10 µg/ml Puromycin): 173 mg/L
- Batch titer day 7 (selected in CD-Fusion w/o Pro + 0.2 mM Orn): 120 mg/L
- Batch titer day 7 (selected in CD-Fusion w/o Pro + 1 mM Orn + 10 µg/ml Puromycin): 159 mg/L
- Batch titer day 7 (selected in CD-Fusion w/o Pro + 1 mM Orn): 135 mg/L
- Batch titer day 7 (selected in CD-Fusion w/o Pro + 5 mM Orn + 10 µg/ml Puromycin): 38 mg/L
- Batch titer day 7 (selected in CD-Fusion w/o Pro + 5 mM Orn): 9 mg/L
